# Assays:
# [1] = test system: HT1080 cells (ATCC, cat #CCL-121); assay: HT1080 CellTiter-Glo 2.0 IC50 assay of working examples; type: cell-based; settings: HT-1080, 24 hrs, cells plated with and without 1.5 μM ferrostatin-1, table does not say which
# Protocol: Biological evaluation of working examples A1-A47 and B1-B28 was performed in HT1080 cells (ATCC, cat #CCL-121) according to the procedure provided below.
# • 1.1 Cells were harvested from flask into cell culture medium and then the cell number count was determined. • 1.2 The cells were suspended with 1.5 μM ferrostatin-1 and without ferrostatin-1. • 1.3 Cells were plated at a density of 1,500 cells per well in a 384-well black sided clear bottom plate, in 25 μL, using electronic multichannel pipette. • 1.4 Plates were covered with lid and spun for 1 min at 1000 rpm, then allowed to incubate overnight at 37° C. under 5% CO2.
# • 2.1 Compounds were dissolved at 10 mM stock solution and 10 μl of diluted solution was transferred to a 384 LDV-plate (LABCYTE, LP-0200). A 3 fold, 11-point dilution was performed. • 2.2 Cells were treated with compounds by plate reformat Echo software and spun for 1 min at 1000 rpm. Then incubated at 37° C. for 24 hrs in a CO2 incubator.
# • 3.1 The plates were removed from the incubator and allowed to equilibrate to room temperature, at least 30 minutes. • 3.2 CellTiter-Glo® 2.0 Reagent (Promega, G9242) was added (25 μL) to the assay plates and spun for 1 min at 1000 rpm. Then allowed to stand for about 20 minutes before reading luminescence signal on Envision. • 3.3 The IC50 calculations were determined with a nonlinear fit, variable slope (four parameters) log(inhibitor) vs. response model using GraphPad PRISM.
# [2] = test system: HT-1080 fibrosarcoma cells; assay: HT-1080 single-concentration cell viability screen (Cell Titer Glo); type: cell-based; settings: 10 μM compound, 48 hours, duplicate, fraction of control
# Excerpt: To identify potential covalent inhibitors of GPX4, we screened a panel of 294 diverse small molecules from the Enamine covalent inhibitor library (Catalog No. CSL-10480-0-Z-10, Enamine, Monmouth, NJ). Each compound contains either a chloroacetamide or acrylamide moiety theoretically capable of forming a covalent bond with a selenocysteine. The small molecule compounds were selected for a diversity of backbone structures. The screening protocol used the cell viability assay Cell Titer Glo® (available from Promega, Madison, WI). Cell Titer Glo® is a luminescent cell viability that determines the number of viable cells in culture by quantifying ATP, which indicates the presence of metabolically active cells. Briefly, HT-1080 fibrosarcoma cells were plated 24 hours prior to treatment with 10 µM of each compound in the screening panel. Cell Titer Glo® was used to read out cell viability after 48 hours of compound exposure. Data was collected in duplicate.
# To determine whether similar molecules could offer other starting points for a medicinal chemistry campaign, we screened 95 additional compounds that contain a similar base structure to that of 8216. Briefly, HT-1080 fibrosarcoma cells were treated with 10 µM of a compound for 48 hours and cell viability was measured by Cell Titer Glo®. Data was collected in duplicate. […]
IC50 ([1]; Table 8),SMILES,Average relative cell viability [2],further results
–,"COc1cc(OC)cc(N(Cc2ccc(F)c(F)c2Cl)C(=O)CCl)c1 [Compound A43, 2-chloro-N-[(2-chloro-3,4-difluoro-phenyl)methyl]-N-(3,5-dimethoxyphenyl)acetamide]",–,IC50 ([1]; Table 7): ≤ 0.01 µM
–,"COc1cc(OC)cc(N(Cc2cc(C)cc(F)c2)C(=O)CCl)c1 [Compound A44, 2-chloro-N-(3,5-dimethoxyphenyl)-N-[(3-fluoro-5-methyl-phenyl)methyl]acetamide]",–,IC50 ([1]; Table 7): 0.01 to 0.1 µM
–,"COc1cc(OC)cc(N(Cc2cccc3nsnc23)C(=O)CCl)c1 [Compound A45, N-(2,1,3-benzothiadiazol-4-ylmethyl)-2-chloro-N-(3,5-dimethoxyphenyl)acetamide]",–,IC50 ([1]; Table 7): 0.01 to 0.1 µM
–,"COc1cc(N(Cc2ccc(F)cc2)C(=O)CCl)ccn1 [Compound A46, 2-chloro-N-[(4-fluorophenyl)methyl]-N-(2-methoxy-4-pyridyl)acetamide]",–,IC50 ([1]; Table 7): 0.1 to 1 µM
–,"Cc1ccc(N(Cc2ccc(F)cc2)C(=O)CCl)cn1 [Compound A47, 2-chloro-N-[(4-fluorophenyl)methyl]-N-(6-methyl-3-pyridyl)acetamide]",–,IC50 ([1]; Table 7): > 10 µM
1 to 10 µM,"C#CC(=O)N(CCCOC)c1nc(-c2ccc(Br)cc2)cs1 [Compound B2, N-[4-(4-bromophenyl)thiazol-2-yl]-N-(3-methoxypropyl)prop-2-ynamide]",–,–
1 to 10 µM,"COCCCN(C(=O)CCl)c1nc(-c2ccc(OC)cc2)cs1 [Compound B3, 2-chloro-N-[4-(4-methoxyphenyl)thiazol-2-yl]-N-(3-methoxypropyl)acetamide]",–,–
0.1 to 1 µM,"Cc1cc(C)cc(N(C(=O)CCl)c2nc(-c3ccc(Br)cc3)cs2)c1 [Compound B5, N-[4-(4-bromophenyl)thiazol-2-yl]-2-chloro-N-(3,5-dimethylphenyl)acetamide]",–,–
> 10 µM,"C=CC(=O)N(c1cc(C)cc(C)c1)c1nc(-c2ccc(Br)cc2)cs1 [Compound B7, N-[4-(4-bromophenyl)thiazol-2-yl]-N-(3,5-dimethylphenyl)prop-2-enamide]",–,–
> 10 µM,"CC#CC(=O)N(c1cc(C)cc(C)c1)c1nc(-c2ccc(Br)cc2)cs1 [Compound B8, N-[4-(4-bromophenyl)thiazol-2-yl]-N-(3,5-dimethylphenyl)but-2-ynamide]",–,–
0.1 to 1 µM,"COc1ccc(-c2csc(N(C(=O)CCl)c3cc(C)cc(C)c3)n2)cc1 [Compound B9, 2-chloro-N-(3,5-dimethylphenyl)-N-[4-(4-methoxyphenyl)thiazol-2-yl]acetamide]",–,–
0.1 to 1 µM,"Cc1cc(C)cc(N(C(=O)CCl)c2nc(C3CCCCC3)cs2)c1 [Compound B10, 2-chloro-N-(4-cyclohexylthiazol-2-yl)-N-(3,5-dimethylphenyl)acetamide]",–,–
0.1 to 1 µM,"Cc1cc(C)cc(N(C(=O)CCl)c2nc(-c3ccccc3)cs2)c1 [Compound B11, 2-chloro-N-(3,5-dimethylphenyl)-N-(4-phenylthiazol-2-yl)acetamide]",–,–
0.1 to 1 µM,"Cc1cc(C)cc(N(C(=O)CCl)c2nc(-c3cccc(Br)c3)cs2)c1 [Compound B12, N-[4-(3-bromophenyl)thiazol-2-yl]-2-chloro-N-(3,5-dimethylphenyl)acetamide]",–,–
0.01 to 0.1 µM,"C#CC(=O)N(c1cc(C)cc(C)c1)c1nc(-c2ccc(Br)cc2)cs1 [Compound B13, N-[4-(4-bromophenyl)thiazol-2-yl]-N-(3,5-dimethylphenyl)prop-2-ynamide]",–,–
1 to 10 µM,"O=C(CCl)N(Cc1ccccc1)c1nc(-c2ccc(Br)cc2)cs1 [Compound B14, N-benzyl-N-[4-(4-bromophenyl)thiazol-2-yl]-2-chloro-acetamide]",–,–
> 10 µM,"O=C(CCl)N(c1ccccc1)c1nc(-c2ccc(Br)cc2)cs1 [Compound B15, N-[4-(4-bromophenyl)thiazol-2-yl]-2-chloro-N-phenyl-acetamide]",–,–
> 10 µM,"Cc1cccc(N(C(=O)CCl)c2nc(-c3ccc(Br)cc3)cs2)c1 [Compound B16, N-[4-(4-bromophenyl)thiazol-2-yl]-2-chloro-N-(m-tolyl)acetamide]",–,–
0.1 to 1 µM,"COc1cccc(N(C(=O)CCl)c2nc(-c3ccc(Br)cc3)cs2)c1 [Compound B17, N-[4-(4-bromophenyl)thiazol-2-yl]-2-chloro-N-(3-methoxyphenyl)acetamide]",–,–
0.01 to 0.1 µM,"C#CC(=O)N(c1cc(OC)cc(OC)c1)c1nc(-c2ccc(Br)cc2)cs1 [Compound B19, N-[4-(4-bromophenyl)thiazol-2-yl]-N-(3,5-dimethoxyphenyl)prop-2-ynamide]",–,–
1 to 10 µM,"O=C(CCl)N(c1cc(Cl)cc(Cl)c1)c1nc(-c2ccc(Br)cc2)cs1 [Compound B20, N-[4-(4-bromophenyl)thiazol-2-yl]-2-chloro-N-(3,5-dichlorophenyl)acetamide]",–,–

IC50 ([1]; Table 8),SMILES,Average relative cell viability [2],further results
0.01 to 0.1 µM,"Cc1cc(C)cc(N(C(=O)CI)c2nc(-c3ccc(Br)cc3)cs2)c1 [Compound B21, N-[4-(4-bromophenyl)thiazol-2-yl]-N-(3,5-dimethylphenyl)-2-iodo-acetamide]",–,–
0.01 to 0.1 µM,"C#CC(=O)N(c1cc(Cl)cc(Cl)c1)c1nc(-c2ccc(Br)cc2)cs1 [Compound B22, N-[4-(4-bromophenyl)thiazol-2-yl]-N-(3,5-dichlorophenyl)prop-2-ynamide]",–,–
> 10 µM,"C=C(F)C(=O)N(c1cc(C)cc(C)c1)c1nc(-c2ccc(Br)cc2)cs1 [Compound B23, N-[4-(4-bromophenyl)thiazol-2-yl]-N-(3,5-dimethylphenyl)-2-fluoro-prop-2-enamide]",–,–
0.1 to 1 µM,"COc1cc(Cl)cc(N(C(=O)CCl)c2nc(-c3ccc(Br)cc3)cs2)c1 [Compound B24, N-[4-(4-bromophenyl)thiazol-2-yl]-2-chloro-N-(3-chloro-5-methoxy-phenyl)acetamide]",–,–
> 10 µM,"O=C(CCl)N(c1cc(F)cc(F)c1)c1nc(-c2ccc(Br)cc2)cs1 [Compound B25, N-[4-(4-bromophenyl)thiazol-2-yl]-2-chloro-N-(3,5-difluorophenyl)acetamide]",–,–
0.01 to 0.1 µM,"C#CC(=O)N(c1cc(Cl)cc(OC)c1)c1nc(-c2ccc(Br)cc2)cs1 [Compound B26, N-[4-(4-bromophenyl)thiazol-2-yl]-N-(3-chloro-5-methoxy-phenyl)prop-2-ynamide]",–,–
> 10 µM,"Cc1cc(C)cc(N(C(=O)C2CO2)c2nc(-c3ccc(Br)cc3)cs2)c1 (stereo not drawn) [Compound B28, N-[4-(4-bromophenyl)thiazol-2-yl]-N-(3,5-dimethylphenyl)oxirane-2-carboxamide]",–,–
–,O=C(CCl)N(Cc1ccccc1)c1nc(-c2ccc(Cl)cc2)cs1 [Compound Z56837054],0.001992,–
–,CCOC(=O)c1sc(N(Cc2ccccc2)C(=O)CCl)nc1C [Compound Z56837076],0.004698,–
–,O=C(CCl)N(CCc1ccccc1)Cc1ccccc1 [Compound Z56891378],0.001872,–
–,O=C(CCl)N(Cc1ccccc1)c1nc(-c2ccc(Br)cc2)cs1 [Compound Z56926666],0.008622,–
–,O=C(CCl)N(Cc1ccccc1)c1nc(-c2ccc(F)cc2)cs1 [Compound Z56946047],0.000624,–
–,Cc1cccc(N(Cc2ccccc2)C(=O)CCl)c1 [Compound Z57052885],0.002244,–
–,O=C(CCl)N(Cc1ccco1)C1=CCCCC1 [Compound Z89264994],0.01228,–
–,O=C(CCl)N(Cc1cccs1)C1CCS(=O)(=O)C1 (stereo not drawn) [Compound Z90122115],0.05782,–
–,O=C(CCl)N(Cc1ccccc1)Cc1ccco1 [Compound Z108565162],0.005394,–
–,COCCN(Cc1ccccc1)C(=O)CCl [Compound Z147647648],0.1007,–
–,O=C(CCl)N(Cc1ccccc1)c1nc2c(s1)CCCC2 [Compound Z147647668],0.005838,–
–,Cc1ccc2sc(N(Cc3ccccc3)C(=O)CCl)nc2c1C [Compound Z147647684],0.006576,–
–,O=C(CCl)N(Cc1cccs1)CC1CCCO1 (stereo not drawn) [Compound Z147647920],0.04392,–

SMILES,IC50 ([1]; Table 8),Average relative cell viability [2],further results
"Cc1cc(C)cc(N(C(=O)CF)c2nc(-c3ccc(Br)cc3)cs2)c1 [Compound B27, N-[4-(4-bromophenyl)thiazol-2-yl]-N-(3,5-dimethylphenyl)-2-fluoro-acetamide]",> 10 µM,–,–

# Source: patent US20240315994A1, “SMALL MOLECULE MODULATORS OF FERROPTOSIS” (ARPEGGIO BIOSCIENCES, INC., priority 2021, published 2024)
